Results on one substance are retold here after US12257284B2, “Lantibiotics, lantibiotic-producing bacteria, compositions and methods of production and use thereof” (MEMORIAL SLOAN-KETTERING CANCER CENTER, priority 2017, dated 2025).

This assay deals with VRE. As to the kind of experiment: VRE cultured in filtered culture supernatants or size fractions, VRE CFU quantitated. The class given is cell-based, vancomycin-resistant Enterococcus. As to conditions: VRE 6 hours. As for the experimental part:
10^7 CFU/mL B. producta or C. bolteae±10^3 CFU/mL VRE were cultured in BHIS for 6 hours anaerobically at 37° C. The culture supernatants were filtered through a 0.22 μm filter. 10^3 CFU/mL VRE were cultured in the filtered culture supernatants for 2, 6, or 24 hours anaerobically at 37° C. […] 10^7 CFU/mL B. producta, C. bolteae, P. distasonis, or B. sartorii were cultured in BHI overnight (at least 8 hours) anaerobically at 37° C. The culture supernatants were filtered through a 0.22 μm filter and diluted 1:2 in fresh BHIS. 10^3 CFU/mL VRE were cultured in the filtered culture supernatants for 2, 6, or 24 hours anaerobically at 37° C.
10^7 CFU/mL B. producta was cultured for 0, 6, 24 hours in BHIS anaerobically at 37° C. Culture growth was verified by quantitating B. producta CFU at 6, 24, 48, and 72 hours. […] The culture supernatant at 0, 6, and 24 hours was filtered through a 0.22 μm filter, then concentrated by ultrafiltration with a molecular weight cut off greater than 100 kDa. The concentrated culture supernatant was then diluted to the original volume with fresh BHIS culture medium. Concentrated/diluted medium was inoculated with 10^3 CFU/mL VRE and cultured anaerobically at 37° C. for 6, 24, 48 hours.
10^7 CFU/mL B. producta were cultured for 24 hours anaerobically at 37° C. in BHIS. […]

As to nisin, for the setting “filtered supernatant, nisin extract powder 1 mg per 1 mL medium, FIG. 31 left panel”, the “VRE growth (VRE CFU) in filtered culture supernatant or nisin medium” value is given as “inhibited VRE”. Besides, the “VRE growth (VRE CFU) with greater than 100 kDa concentrated samples” value (samples concentrated by ultrafiltration, cut off greater than 100 kDa, diluted to original volume, FIG. 31 right panel) was “inhibited VRE”.
